TGI data for 29 molecules are collected here from PubChem BioAssay (NCI).

Holding throughout (assay): NCI-60 cell line screen, 48 h
The test system of experiment [1] is COLO 205 colon.
The test system of experiment [2] is DU-145 prostate.
Experiment [3] deals with HL-60(TB) leukemia.
For experiment [4], the system named is M14 melanoma.
Experiment [5] deals with MOLT-4 leukemia.
Experiment [6] relates to NCI-H23 lung.
Experiment [7] concerns NCI-H460 lung.
In experiment [8] the test system is SK-OV-3 ovarian.
In experiment [9] the test system is SNB-75 CNS.
For experiment [10], the system named is TK-10 renal.

Each structure is given as a SMILES string.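 Step 1: Grow cells in 96-well plates. Step 2: Expose to compound for 48 hours at 5 concentrations. Step 3: Interpolate endpoints linearly; if unreached, use highest concentration. TGI marks complete inhibition of growth.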 Where only a bound is given, the exact number is not on record here.

On to `Cn1c2ccc3cc2c(=S)c2cc(ccc21)OCCOCCOCCOCCOCCOCCO3`, for which the TGI in experiment [1], in experiment [2], in experiment [3], in [4], in experiment [5] and in [6] was > 10 µM throughout. For the same molecule, the TGI in experiment [7], in [8], in [9] and in [10] was > 10 µM each time.
With `Cc1cc(-c2nc3ccc(F)cc3s2)ccc1NC(=O)[C@H](C)N`, the TGI in experiment [1] was 23.8 µM; in experiment [2], 26 µM; in experiment [3] it was 7.45 µM; in [4], 3.94 µM; in experiment [5], 12.8 µM; in [6], 26.1 µM. The TGI in experiment [7] came to 6.09 µM; in experiment [8], 28.2 µM; in [9] it was 25.4 µM; in experiment [10], 5.11 µM.
As to `C(=C(c1ccc(OC2CCCCO2)cc1)c1ccc(OC2CCCCO2)cc1)c1ccccc1` (stereo not drawn), the TGI in experiment [1] is 1.6 µM; in experiment [2], 2.11 µM; in [3], 1.19 µM; in experiment [4] it was 2 µM; in experiment [5], > 100 µM; in experiment [6], 2.24 µM. Moreover, the TGI came to 1.79 µM in [7], 2.64 µM in [8], 2.13 µM in experiment [9] and 2.35 µM in experiment [10].
Take `Oc1ccccc1CNCc1nc2ccccc2[nH]1`: the TGI in experiment [1] was 82.7 µM; in experiment [2] it was > 100 µM; in experiment [3] it was > 100 µM; in experiment [4] it was > 100 µM; in experiment [5], > 100 µM; in experiment [6], > 100 µM. For the same molecule, the TGI in experiment [9] and in experiment [10] was > 100 µM throughout.
As for `Cn1c(=O)c2c(nc3n2CC(C(=O)O)N3)n(C)c1=O` (stereo not drawn), the TGI was > 100 µM in experiment [1]; > 100 µM in experiment [2]; > 100 µM in experiment [3]; > 100 µM in [4]; 0.242 µM in [5]; > 100 µM in experiment [6]. Besides, the TGI in experiment [7], in experiment [8], in experiment [9] and in experiment [10] was > 100 µM in each case.
Take `COc1cccc(Nc2nc(-c3cccs3)nc3cc(OC)c(OC)cc23)c1`: the TGI is 62.3 µM in experiment [1]; > 100 µM in experiment [2]; > 100 µM in experiment [3]; 82.2 µM in [4]; > 100 µM in experiment [5]; 89.7 µM in experiment [6]. The TGI is 79.4 µM in experiment [7], > 100 µM in [8], 73.5 µM in experiment [9] and > 100 µM in experiment [10].
Regarding `CN(C)CCNS(=O)(=O)c1ccc(N)cc1`, the TGI in [1], in experiment [2], in experiment [3], in experiment [4], in experiment [5] and in experiment [6] was > 100 µM each time. Moreover, the TGI in experiment [7], in [8], in experiment [9] and in experiment [10] was > 100 µM throughout.
As to `Oc1ccc(Cc2cc(Cc3ccc(O)cc3)cc(Cc3ccc(O)cc3)c2)cc1`, the TGI in experiment [2], in experiment [3], in experiment [4], in experiment [5], in experiment [7] and in [8] was > 50 µM in each case. Also, the TGI in [9] and in experiment [10] was > 50 µM each time.
As to `CC(=O)Oc1cccc2c1C(=O)CCCC2`, the TGI in [1], in experiment [2], in [3], in [4], in experiment [5] and in experiment [6] was > 100 µM each time. Also, the TGI in experiment [7] was > 100 µM; in experiment [8] it was > 100 µM; in experiment [9], 4.78 µM; in experiment [10] it was > 100 µM.
On to `Nc1nccc(-c2c[nH]c3cc(Br)ccc23)n1`, for which the TGI is > 100 µM in experiment [1]; > 100 µM in experiment [2]; > 100 µM in [3]; 43.9 µM in experiment [4]; 61.8 µM in experiment [5]; 88.4 µM in [6]. In addition, the TGI in experiment [7] is > 100 µM; in [8] it was 99.4 µM; in experiment [9], > 100 µM; in [10], 59 µM.
In the case of `Nc1nc2c(c(-c3cccc(Cl)c3)n1)COC/C2=C\c1cccc(Cl)c1`, the TGI in experiment [1], in experiment [2], in experiment [3], in experiment [4], in experiment [5] and in experiment [6] was > 100 µM throughout. Besides, the TGI in experiment [7], in experiment [8], in [9] and in [10] was > 100 µM each time.
`NC(N)=Nc1ccc(CC(N)NCC(=O)O)cc1` (stereo not drawn): the TGI in experiment [1], in experiment [2], in experiment [3], in experiment [4], in [5] and in experiment [6] was > 25 µM each time. For the same molecule, the TGI in experiment [8], in experiment [9] and in experiment [10] was > 25 µM in each case.
For the molecule `O=[N+]([O-])c1cc(C=NC23CC4CC(CC(C4)C2)C3)ccc1Cl`, the TGI in experiment [1] is > 70.3 µM; in [2], > 60.4 µM; in experiment [3], 8.28 µM; in experiment [4], 26.1 µM; in experiment [5], 27 µM; in experiment [6], 42.8 µM. Also, the TGI in experiment [7] was > 71 µM; in experiment [8], > 100 µM; in [9], > 100 µM; in experiment [10] it was > 87.2 µM.
On to `Nn1c(-c2ccccc2)n[nH]c1=O`, for which the TGI in experiment [1], in [2], in [3], in [4], in [5] and in [6] was > 100 µM throughout. The TGI in experiment [7], in experiment [8], in [9] and in experiment [10] was > 100 µM throughout.
On to `Cc1ccc(N(Cc2ccccc2)Cc2ccccc2)cc1`, for which the TGI is > 100 µM in [1]; > 100 µM in experiment [2]; > 100 µM in [3]; > 100 µM in experiment [4]; 79.3 µM in experiment [5]; > 100 µM in experiment [6]. Further, the TGI in experiment [7], in experiment [8], in experiment [9] and in experiment [10] was > 100 µM each time.
`N=c1nnc2ccc(Cl)cc2n1O`: the TGI was 64.5 µM in experiment [1]; > 100 µM in experiment [2]; > 100 µM in experiment [3]; > 100 µM in experiment [4]; > 100 µM in experiment [5]; > 100 µM in [6]. For the same molecule, the TGI in experiment [8], in experiment [9] and in [10] was > 100 µM throughout.
On to `Cc1ccc(NC(=O)c2ccc(OP(=O)(O)Nc3ccc(C)cc3)cc2)cc1`, for which the TGI in [1], in [2], in [3], in experiment [4], in experiment [5] and in experiment [6] was > 100 µM each time. For the same molecule, the TGI in experiment [7], in [8], in experiment [9] and in experiment [10] was > 100 µM throughout.
As to `CC1(C(=O)O)CCC2(C)CCC3(C)C(=CC(=O)C4C5(C)CCC(O)C(C)(C)C5CCC43C)C2C1` (stereo not drawn), the TGI in experiment [1] is > 100 µM; in experiment [2] it was 77.3 µM; in experiment [3] it was 51.3 µM; in experiment [4], > 100 µM; in experiment [5], > 100 µM; in experiment [6] it was 44.8 µM. Further, the TGI in [8], in experiment [9] and in [10] was > 100 µM each time.
Turning to `O=C(Cc1ccc(O)c(O)c1)NCc1c[nH]c2ccccc12`, the TGI in experiment [1] is > 100 µM; in experiment [2] it was > 100 µM; in experiment [3] it was 85.7 µM; in [4], > 100 µM; in experiment [5], > 100 µM; in [6], > 100 µM. The TGI in experiment [7] was > 100 µM; in experiment [8], > 100 µM; in experiment [9], > 100 µM; in [10], 69.5 µM.
As to `Cc1cccc(Cn2c3c(c4cc(O)ccc42)C(=O)c2ccccc2C3=O)c1`, the TGI in experiment [1] was > 100 µM; in [2], > 100 µM; in experiment [3] it was > 89 µM; in [4] it was > 100 µM; in experiment [5] it was > 100 µM; in [6] it was > 100 µM. Moreover, the TGI in experiment [7] was > 100 µM; in experiment [8] it was > 29.9 µM; in experiment [9], 8.63 µM; in [10], > 100 µM.
As to `COC(=O)C1=C(C(=O)OC)SC(=C2SCSC3=C2SC(C(=O)OC)=C(C(=O)OC)C32SC3=C(CCCC3)S2)S1`, the TGI in experiment [1], in experiment [2], in experiment [3], in experiment [4], in [5] and in [6] was > 100 µM throughout. In addition, the TGI was > 100 µM in experiment [7], > 100 µM in experiment [8], 36.3 µM in [9] and > 100 µM in [10].
For the molecule `CC(=O)N1C(C(=O)NC2CCCCC2)CSC1c1ccccc1` (stereo not drawn), the TGI in [2], in experiment [3], in [4], in experiment [5], in experiment [6] and in experiment [7] was > 100 µM each time. The TGI in [8], in experiment [9] and in experiment [10] was > 100 µM in each case.
In the case of `N#CC(NCc1cccc(CNC(C#N)c2ccccc2)c1)c1ccccc1` (stereo not drawn), the TGI in experiment [1] was 42.6 µM; in experiment [2], > 100 µM; in experiment [3], 43.4 µM; in experiment [4] it was 62.2 µM; in experiment [5], 39 µM; in [6], > 100 µM. Further, the TGI is > 100 µM in experiment [8], 87.6 µM in experiment [9] and > 100 µM in experiment [10].
`O=C(OCc1ccccc1)N1CCNCCN(C(=O)OCc2ccccc2)CCNCC1`: the TGI was > 100 µM in experiment [2]; 93.4 µM in [3]; 50.4 µM in experiment [5]; 49.4 µM in [7]; > 100 µM in experiment [8]; 85.2 µM in experiment [9]. The TGI in experiment [10] is > 100 µM.
Regarding `O=C(N/N=C/c1ccc(Cl)cc1)c1c(Cl)c(Cl)c(Cl)c(Cl)c1-c1nc2ccccc2[nH]1`, the TGI in experiment [1], in experiment [2], in experiment [3], in [4], in [5] and in experiment [6] was > 100 µM throughout. Besides, the TGI in [7], in [8] and in [9] was > 100 µM in each case.
Turning to `O=C(/C=C/c1ccc2c(c1)OCO2)c1ccc(O)cc1`, the TGI was 31.3 µM in experiment [1]; 30.1 µM in experiment [2]; 28.7 µM in experiment [3]; 32.2 µM in [4]; 30 µM in [6]; 28.6 µM in experiment [7]. Besides, the TGI in experiment [8] was 35.1 µM; in experiment [9], 75.7 µM; in [10] it was 33.1 µM.
For the molecule `CC(=O)N(C(=O)CC(=O)N1N=C(c2ccccc2)C(N=Nc2ccccc2[N+](=O)[O-])C1=O)c1ccc(Cl)cc1` (stereo not drawn), the TGI in experiment [1], in experiment [2], in experiment [3], in experiment [5], in experiment [6] and in [7] was > 10 µM throughout. The TGI in experiment [8], in experiment [9] and in experiment [10] was > 10 µM in each case.
Turning to `COc1ncc(/C=C2\OC(=O)c3ccccc32)c(OC)n1`, the TGI in experiment [1], in experiment [2], in [3], in experiment [4], in experiment [5] and in [6] was > 100 µM each time. Moreover, the TGI in experiment [7] was > 100 µM; in [9], 47.3 µM; in experiment [10], > 100 µM.
`CCC(=O)NC(Nc1cc(C)on1)(C(F)(F)F)C(F)(F)F`: the TGI in [2], in experiment [3], in experiment [4], in [5], in experiment [6] and in [7] was > 100 µM in each case. For the same molecule, the TGI in experiment [8], in experiment [9] and in [10] was > 100 µM each time.
